The text below walks through data of patent US7507727B2, “Substituted quinobenzoxazine analogs and methods of using thereof” (Cylene Pharmaceuticals, Inc., priority 2003, dated 2009).

Molecules are shown by their SMILES. “Also recorded” adds a separate entry of the source.

Data set [1] is described as follows: Metabolic stability and metabolite profiling in hepatocytes. It counts as in vitro ADME, human. On the procedure:
Metabolic Stability Assay and Metabolite Profiling. A human hepatocyte assay to profile metabolites was carried out using commercially available kits and following standard procedures. The metabolic stability of CX-3543 with human hepatocytes was evaluated following incubation at 0, 30, 60, and 120 minutes at 1 and 20 μM. Consumption of the parent compound and the appearance of metabolites were carefully monitored, and mass spectrometer product ion scans were conducted on potential metabolite peaks to define the metabolite fragmentation pattern.
The protocol is designed to determine the stability of a new chemical entity in the presence of hepatocytes (human, rat, dog, monkey) in in vitro incubations. The test article will be incubated with hepatocytes and suitable media for various times at 37° C. The reaction mixtures will be extracted and analyzed by LC/MS/MS for the parent compound and anticipated metabolites. If applicable, a half-life will be calculated for the consumption of the test article. Metabolism controls will be run for comparison of the half-life values with that obtained for the test article. The metabolism controls are tolbutamide, desipramine and naloxone, and these compounds have defined pharmacokinetics corresponding to low, moderate and high in vivo clearance values, respectively.
Metabolic Stability Study. Generally, solutions of the test compounds are prepared along with a cocktail solution of metabolism controls that are intended to provide a reference for enzyme activity. The reactions are initiated by combining these pre-warmed solutions with hepatocyte suspensions and with a media control solution. Control zero samples are taken from these reactions immediately after initiation. Additional samples are taken at appropriate time points. Each sample is immediately placed in a terminating solution (acidified acetonitrile containing internal standard) to stop the reaction. Hepatocyte blank suspensions and test compound standard solutions are prepared.
Samples and standards for the test compound as well as appropriate blanks are subjected to a custom sample preparation procedure and analyzed for the parent and/or metabolite form of the test compound using high-performance liquid chromatography coupled with tandem mass spectrometry. Samples and standards for the metabolism controls are subjected to the analytical method described herein. Where Krebs Henseleit buffer is added, the buffer is bubbled with 5% CO2 in air at room temperature for 5-10 minutes before adding BSA to a final concentration of 0.2% w/v. The volume of terminating solution and the method of sample preparation will be determined for the test article during method development.
Test Article/Media Solution. A solution of the test article will be prepared by adding an appropriate volume of the stock solution to 0.2% BSA in Krebs Henseleit buffer equilibrated with 5% CO2 in air. The final concentration will be 20 μM and the final assay concentration at initiation of the reactions will be […].
Metabolism Controls/Media Solution. A solution of tolbutamide, desipramine and naloxone will be prepared by adding an appropriate volume of each 10 mM stock solution to 0.2% BSA in Krebs Henseleit buffer equilibrated with 5% CO2 in air. […]
Hepatocyte Suspension Solution. […] During the final step of the procedure, the viability of the cells will be determined using the method of trypan blue exclusion. […]

The test system of data set [2] is c-myc quadruplex relative to pUC 18 plasmid DNA. The data set can be described thus: Quadruplex/duplex competitor assay (selectivity screen). It counts as binding. To be noted: ratio of the competitor IC50 values; FIG. 3. On the procedure:
After cooling down to room temperature, 1 mM KCl and the test compound (various concentrations) were added and the mixture incubated for 15 minutes at room temperature. The primer extension was performed by adding 10 mM KCl and Taq DNA Polymerase (2.5 U/reaction, Promega) and incubating at 70° C. for […]. The reaction was stopped by adding 1 μl of the reaction mixture to 10 μl Hi-Di Formamide mixed and 0.25 μl LIZ120 size standard. Hi-Di Formamide and LIZ120 size standard were purchased from Applied Biosystems. The method is repeated with the addition of various concentrations of competitor nucleic acids at the first step, along with the primer and template sequences. The G-quadruplex binding ligand is added at the concentration previously established to produce a 1:1 ratio of stop-product to full-length product.
Quadruplex/Duplex Competitor Assay. The selectivity of compounds for the target quadruplex sequence relative to duplex DNA may be measured using a competition assay (i.e., “selectivity screen”). […] The degree to which each competitor successfully “soaks up” drug in solution is reflected by the quantitative decrease in synthesis of the stop product. In this manner, the relative binding affinities of drug to both the target quadruplex and duplex DNA are determined. […]

For the next data set, the system named is HCT-116 xenograft. The data set can be described thus: HCT-116 colorectal cancer xenograft model. It counts as in vivo. The settings on record: HCT-116; 10, 15 and 20 mg/kg; FIG. 8. Here is the method:
Two xenograft models for inoculation were harvested and diluted to a concentration of 50×10^6 cells/ml or 100×10^6 cells/ml. Four to six week old nude mice were injected with 0.1 ml of the cell suspension containing between 5×10^6 and 10×10^6 cells. When tumors are of a suitable size compound dosing is commenced. Tumor sizes are measured throughout the treatment period with calipers and body weights also measured.
(§1) CX-3543 was tested against a number of cancer xenograft models to determine the in vivo efficacy. HCT-116 and PC-3 tumor-bearing nu/nu or MiaPaCa tumor-bearing SCID mice were administered reference and testing compounds on schedules indicated in figure legends. Tumor measurements were taken with calipers every other day or twice a week starting from the first day of dosing and body weights were measured at the same time points. Tumor volumes were calculated from the standard formula, W^2×L/2. c-MYC mRNA expression was measured with QPCR from all tumor samples following the final dose. 18S ribosomal RNA was used as a housekeeper and also quantified with QPCR.

A further data set relates to PC-3 xenograft. As to the kind of experiment: PC-3 prostate cancer xenograft model. The settings on record: 5, 10 and 15 mg/kg i.p. q.o.d., FIG. 9. The data set is classed as in vivo, mice. On the procedure:
as §1

Regarding `CN1CCCC1CCNC(=O)c1cn2c3c(c(N4CCC(c5cnccn5)C4)c(F)cc3c1=O)Oc1cc3ccccc3cc1-2` (centres unmarked) [CX-3543], the “metabolites in the hepatocyte incubation medium” value in data set [1] (0 vs 120 min) is “no single major metabolite is present”. Moreover, the consumption by hepatocytes result in data set [1] (1 uM) is “very slowly”; in data set [1] (concentrations from about 12-20 uM) it was “moderately to quickly”. Also, the original drug remaining result in data set [1] (at or below 12 uM) is on record as “about 60%”. The Km in data set [1] (human, human hepatocytes (suspension), read-out: apparent Km of consumption by hepatocytes) is more than 20 µM. Besides, the “selectivity for the c-myc quadruplex relative to pUC 18 plasmid DNA” value in data set [2] is listed as “approximately 400 ×”. Also, the tumor growth inhibition result in the data set on HCT-116 xenograft and in the data set with PC-3 xenograft was “inhibits tumor growth; also recorded: significant tumor growth inhibition” throughout.
